Measurements: paper PMC6572064, “Discovery of 2-(1-(3-(4-Chloroxyphenyl)-3-oxo- propyl)pyrrolidine-3-yl)-1H-benzo[d]imidazole-4-carboxamide: A Potent Poly(ADP-ribose) Polymerase (PARP) Inhibitor for Treatment of Cancer” (Molecules, 2019)
“And” between values parts separate entries of the source, which are not always exact repeats. Equal entries are not always repeated. Where two headings read alike, the source gives them in different places.

Legend:
[1] = tested on: CAPAN-1 (a BRCA-2-mutated pancreatic cancer cell line); assay: Cell proliferation assay, three-day, CellTiter-Glo, CAPAN-1; type: cell-based; details: for inhibition at 0.00508 µM: CAPAN-1, Conc. 0.00508 uM; for inhibition at 0.0152 µM: CAPAN-1, Conc. 0.0152 uM; for inhibition at 0.0457 µM: CAPAN-1, Conc. 0.0457 uM; for inhibition at […]: CAPAN-1, Conc. 0.14 uM; for inhibition at 0.41 µM: CAPAN-1, Conc. 0.41 uM; for inhibition at 1.23 µM: CAPAN-1, Conc. 1.23 uM; for inhibition at 3.7 µM: CAPAN-1, Conc. 3.70 uM; for inhibition at 11.11 µM: CAPAN-1, Conc. 11.11 uM; for inhibition at 33.33 µM: CAPAN-1, Conc. 33.33 uM; for inhibition at 100 µM: CAPAN-1, Conc. 100.00 uM
Method: (§1) A three-day assay was conducted. A cell suspension was prepared. Cell density was counted by an automated cell counter and then diluted to the required density, according to seeding density. 50 μL cells were seeded into 384-well plate in growth medium according to the plate map. The cells were incubated at 37 °C, 5% CO2 overnight.
(§2) 200× compound solution in DMSO was prepared and diluted with growth medium to 26× final concentration by addition of 26 μL 200× compounds to 174 μL growth medium. Then 2 μL of diluted compound solution was added to cells and the cell was incubated at 37 °C, 5% CO2 for 72 h.
(§3) The assay plate was equilibrated to room temperature prior to measurement. 15 μL of CellTiter-Glo Reagent was added into each well and the contents were mixed for 2 min on an orbital shaker to induce cell lysis. The cells were incubated at room temperature for 60 min to stabilize luminescent signal. Luminescence was recorded on the Envision system.

[2] = tested on: MDA-MB-436 (a BRCA-1-mutated breast cancer cell line); assay: Cell proliferation assay, three-day, CellTiter-Glo, MDA-MB-436; type: cell-based; details: for inhibition at 0.00508 µM / inhibition at 0.0152 µM / inhibition at 0.0457 µM / inhibition at 0.41 µM / inhibition at 1.23 µM / inhibition at 3.7 µM / inhibition at 11.11 µM / inhibition at 33.33 µM / inhibition at 100 µM / IC50: Homo sapiens; for inhibition at 0.00508 µM: MDA-MB-436, MDA-MB-436, Conc. 0.00508 uM; for inhibition at 0.0152 µM: MDA-MB-436, MDA-MB-436, Conc. 0.0152 uM; for inhibition at 0.0457 µM: MDA-MB-436, MDA-MB-436, Conc. 0.0457 uM; for inhibition at 0.41 µM: MDA-MB-436, MDA-MB-436, Conc. 0.41 uM; for inhibition at 1.23 µM: MDA-MB-436, MDA-MB-436, Conc. 1.23 uM; for inhibition at 3.7 µM: MDA-MB-436, MDA-MB-436, Conc. 3.70 uM; for inhibition at 11.11 µM: MDA-MB-436, MDA-MB-436, Conc. 11.11 uM; for inhibition at 33.33 µM: MDA-MB-436, MDA-MB-436, Conc. 33.33 uM; for inhibition at 100 µM: MDA-MB-436, MDA-MB-436, Conc. 100.00 uM
Method: as §1, §2, §3

[3] = CAPAN-1, curve fit of Inh %, plate 1
[4] = Homo sapiens, replicate 1, read-out: Inh % 1
[5] = Homo sapiens, replicate 2, read-out: Inh % 2

Question: Which IC50 ([1]; CAPAN-1, 72 h, supplement Summary sheet, read-out: IC50) does the source give for CN[C@@H]1C[C@H]2O[C@@](C)([C@@H]1OC)n1c3ccccc3c3c4c(c5c6ccccc6n2c5c31)C(=O)NC4 [STS, reference compound] here?
Answer: 0.0647 µM

Question: What about the Bottom [1, 3] of the same compound?
Answer: 8.442 and 8.44

Question: And the HillSlope [1, 3]?
Answer: 0.6137 and 0.61

Question: And the Top [1, 3]?
Answer: 105.1

Question: What about the IC50 ([1]; CAPAN-1, curve fit, plate 1, read-out: IC50) of the same compound?
Answer: 0.0647 µM

Question: Which results are given for O=C(c1cc(Cc2n[nH]c(=O)c3ccccc23)ccc1F)N1CCN(C(=O)C2CC2)CC1 [pc2, Olaparib, reference compound]?
Answer: inhibition at 0.00508 µM ([2]; replicate 1, read-out: Inh % 1): 4.1%; inhibition at 0.00508 µM ([2]; replicate 2, read-out: Inh % 2): -2.3%; inhibition at 0.0152 µM ([2]; replicate 1, read-out: Inh % 1): 1.7%; inhibition at 0.0152 µM ([2]; replicate 2, read-out: Inh % 2): -1.2%; inhibition at 0.0457 µM ([2]; replicate 1, read-out: Inh % 1): -5.7%; inhibition at 0.0457 µM ([2]; replicate 2, read-out: Inh % 2): -2.8%; inhibition at 0.41 µM ([2]; replicate 1, read-out: Inh % 1): 0.181%; inhibition at 0.41 µM ([2]; replicate 2, read-out: Inh % 2): 5.7%; inhibition at 1.23 µM ([2]; replicate 1, read-out: Inh % 1): 4%; inhibition at 1.23 µM ([2]; replicate 2, read-out: Inh % 2): 2%; inhibition at 3.7 µM ([2]; replicate 1, read-out: Inh % 1): 12.4%; inhibition at 3.7 µM ([2]; replicate 2, read-out: Inh % 2): 13.5%; inhibition at 11.11 µM ([2]; replicate 1, read-out: Inh % 1): 23.3%; inhibition at 11.11 µM ([2]; replicate 2, read-out: Inh % 2): 24.2%; inhibition at 33.33 µM ([2]; replicate 1, read-out: Inh % 1): 50.1%; inhibition at 33.33 µM ([2]; replicate 2, read-out: Inh % 2): 43.1%; inhibition at 100 µM ([2]; replicate 1, read-out: Inh % 1): 92.4%; inhibition at 100 µM ([2]; replicate 2, read-out: Inh % 2): 90.9%; IC50 ([2]; MDA-MB-436, 72 h, CellTiter-Glo, read-out: MDA-MB-436 IC50): 30.2 µM; IC50 ([2]; MDA-MB-436, 72 h, supplement Summary sheet, read-out: IC50): 30.2 µM; IC50 ([2]; MDA-MB-436, curve-fit parameter list, concentrations in uM, read-out: IC50): 30.2 µM; LogIC50 ([2]; MDA-MB-436, curve-fit parameter list, Log (uM)): 1.481; CAPAN-1 IC50 (μM) ([1]; 72 h, CellTiter-Glo): low potency; LogIC50 ([1]; CAPAN-1, curve-fit output, concentration axis Log (uM)): 2.033; IC50 ([1]; Homo sapiens, CAPAN-1, 72 h, CellTiter-Glo, read-out: CAPAN-1 IC50): > 100 µM; inhibition at 0.00508 µM [1, 4]: 1.8%; inhibition at 0.00508 µM [1, 5]: -2%; inhibition at 0.0152 µM [1, 4]: 5.2%; inhibition at 0.0152 µM [1, 5]: -2.3%; inhibition at 0.0457 µM [1, 4]: -6.9%; inhibition at 0.0457 µM [1, 5]: 0.662%; inhibition at […] [1, 4]: 0.107%; inhibition at […] [1, 5]: 6.2%; inhibition at 0.41 µM [1, 4]: 4.3%; inhibition at 0.41 µM [1, 5]: 7.9%; inhibition at 1.23 µM [1, 4]: 15.1%; inhibition at 1.23 µM [1, 5]: 0.6%; inhibition at 3.7 µM [1, 4]: 21.3%; inhibition at 3.7 µM [1, 5]: 11.6%; inhibition at 11.11 µM [1, 4]: 18.6%; inhibition at 11.11 µM [1, 5]: 23.5%; inhibition at 33.33 µM [1, 4]: 38.5%; inhibition at 33.33 µM [1, 5]: 34.2%; inhibition at 100 µM [1, 4]: 48.2%; inhibition at 100 µM [1, 5]: 47.5%
